From PMC4984914 (British Journal of Cancer, 2016)

Key:
Assay type in all cases: in vivo
[1] = Preclinical plasma level of cleavage product 12ADT-Asp after dosing; conditions: rats; any time after dosing of mipsagargin
[2] = as above; conditions: mice; any time after dosing of mipsagargin
[3] = as above; conditions: monkeys; any time after dosing of mipsagargin

Measured: Level of cleavage product 12ADT-Asp in plasma

C/C=C(/C)C(=O)O[C@H]1C(C)=C2[C@H]([C@@H]1OC(=O)CCCCCCC)[C@@](C)(OC(C)=O)C[C@H](OC(=O)CCCCCCCCCCCNC(=O)C[C@H](N)C(=O)O)[C@@]1(O)[C@H]2OC(=O)[C@@]1(C)O [12ADT-Asp]
virtually undetectable: [1] | [2] | [3]
